Test results taken from patent US20220249441A1, “Homodimeric Tobramycin Adjuvant Repurposes Novobiocin as an Effective Antibacterial Agent Against Gram-Negative Bacteria” (priority 2019, published 2022).

Tests used:
E. faecium ATCC 27270 = assay: MIC and combination against Gram-positive bacteria; type: cell-based
Method: (§1) Next, we investigated whether tobramycin by itself would potentiate novobiocin against Gram-negative bacteria.
(§2) Antimicrobial Susceptibility Assay. The in vitro antimicrobial activity of all compounds/antibiotics against a panel of bacteria was evaluated by microbroth dilution method in accordance with the Clinical and Laboratory Standards Institute (CLSI) guidelines (using ATCC strains as quality control strains) (54). Overnight grown bacterial cultures were diluted in saline to achieve a 0.5 McFarland turbidity, followed by 1:50 dilution in Mueller-Hinton broth (MHB) for inoculation to a final concentration of approximately 5×10^5 CFU/mL. […] The lowest concentration that prevented the visible growth of bacteria was defined as the MIC for each antimicrobial agent. The broth with or without bacterial cells was used as positive or negative control, respectively.

MRSE 61589 = assay: MIC and combination against Gram-positive bacteria; type: cell-based
Method: as §1, §2

MRSA ATCC 33592 = assay: MIC and combination against Gram-positive bacteria; type: cell-based; details: MRSA ATCC 33592
Method: as §1, §2

A. baumannii = assay: Checkerboard assay (antibiotic + adjuvant combination MIC); type: cell-based, Acinetobacter baumannii; details: for MIC of Novobiocin +Compound 1: 1 at ≤7.1 μM; for Fold Potentiation: novobiocin + 1 at ≤7.1 μM
Method: as §2
(§3) Checkerboard Assay. Combination studies with different antibiotics were performed in 96-well plates as previously described (19). Briefly, the antibiotic of interest was serially diluted in MHB along the abscissa while the adjuvant (tobramycin homodimer) was serially diluted in MHB along the ordinate. This creates a 10×7 matrices wherein each well consists of a combination of different antibiotic and adjuvant concentrations. Overnight grown bacterial cultures were diluted in saline to achieve a 0.5 McFarland turbidity, followed by 1:50 dilution in Mueller-Hinton broth (MHB) for inoculation to a final concentration of approximately 5×10^5 CFU/mL. […] MIC was recorded as wells with the lowest concentration of drugs with no bacterial growth. The fractional inhibitory concentration (FIC) for each antibiotic was calculated by dividing the MIC of the antibiotic in the presence of adjuvant by the MIC of the antibiotic alone. Similarly, the FIC of adjuvant was calculated by dividing the MIC of the adjuvant in the presence of antibiotic by the MIC of the adjuvant alone. FIC index is the sum of both FICs. FIC indices of ≤0.5 were deemed synergistic; >0.5-4, no interaction; and >4, antagonistic.

P. aeruginosa = assay: as above; type: cell-based, Pseudomonas aeruginosa; details: for MIC of Novobiocin +Compound 1: 1 at ≤7.1 μM; for MIC of Novobiocin + adjuvant (7.1 μM): PMBN or 1 at 7.1 μM
E. coli = assay: as above; type: cell-based, Escherichia coli; details: for MIC of Novobiocin +Compound 1: 1 at ≤7.1 μM; for MIC of Novobiocin + adjuvant (7.1 μM): PMBN or 1 at 7.1 μM; for Fold Potentiation: novobiocin + 1 at ≤7.1 μM
Method: as §2, §3

E. cloacae = assay: as above; type: cell-based, Enterobacter cloacae; details: for MIC of Novobiocin +Compound 1: 1 at ≤7.1 μM; for Fold Potentiation: novobiocin + 1 at ≤7.1 μM
Method: as §2, §3

K. pneumoniae = assay: as above; type: cell-based, Klebsiella pneumoniae; details: for MIC of Novobiocin +Compound 1: 1 at ≤7.1 μM; for Fold Potentiation: novobiocin + 1 at ≤7.1 μM
Method: as §2, §3

A. baumannii ATCC 17978 = assay: microbe, parasite or virus in culture; type: cell-based, Acinetobacter baumannii; details: seven serial passages
Method: Development of Resistance Study. […] Tobramycin and colistin were included as controls. At 24-hour intervals, the cultures were assessed for growth. […] This serial passaging was repeated for 8 days.

MDR A. baumannii = assay: Galleria mellonella in vivo larvae-infection model; details: single dose 100 mg/kg, agent alone; after 24 h
Method: Galleria mellonella In vivo Larvae-Infection Model. In vivo synergistic effects were determined using Galleria mellonella infection model, as previously described (49). Briefly, larvae were purchased from The Worm Lady Live Feeder (ON, Canada), stored in their natural habitat at 16° C., and used within 10 days of delivery. The larvae (average weight of 250 mg) were used for tolerability and efficacy studies. Tolerability study was performed by injecting a 10 μL aliquot of antimicrobial agents only at concentrations equivalent to 100 mg/kg or 200 mg/kg. The larvae (ten in each group) were incubated at 37° C. and monitored for 96 h. For efficacy studies, the virulence and bacterial load required to kill 100% of the larvae within 24 h (with no treatment) was first determined, which is approximately 10 CFU. Overnight grown culture of respective MDR A. baumannii isolate was standardized to 0.5 McFarland standard and diluted in PBS to a final concentration of 10^3 CFU/mL. A 10 μL aliquot of this solution (˜10 CFU) was injected into each larva and incubated for 3 h at 37° C. […] Larvae treated with 10 μL of PBS or high concentrations of test antibiotics served as negative and positive control, respectively. The larvae were incubated at 37° C. in Petri dishes lined with filter paper and scored for survivability every 6 h for up to 36 h. […]

NC[C@H]1O[C@H](O[C@H]2[C@H](OCCCCc3cn(CCCCO[C@@H]4[C@@H](O[C@H]5O[C@H](CO)[C@@H](O)[C@H](N)[C@H]5O)[C@H](N)C[C@H](N)[C@H]4O[C@H]4O[C@H](CN)[C@@H](O)C[C@H]4N)nn3)[C@@H](O[C@H]3O[C@H](CO)[C@@H](O)[C@H](N)[C@H]3O)[C@H](N)C[C@@H]2N)[C@H](N)C[C@@H]1O.O=C(O)C(F)(F)F.O=C(O)C(F)(F)F.O=C(O)C(F)(F)F.O=C(O)C(F)(F)F.O=C(O)C(F)(F)F.O=C(O)C(F)(F)F.O=C(O)C(F)(F)F.O=C(O)C(F)(F)F.O=C(O)C(F)(F)F.O=C(O)C(F)(F)F [Compound 1, Tobramycin Homodimer 1]
effect of addition of compound 1 on activity of novobiocin (E. faecium ATCC 27270): did not improve
effect of addition of compound 1 on activity of novobiocin (MRSE 61589): did not improve
effect of addition of compound 1 on activity of novobiocin (MRSA ATCC 33592): did not improve
MIC of Novobiocin +Compound 1 (A. baumannii; A. baumannii 027): 0.5 µg/mL
Fold Potentiation (A. baumannii; A. baumannii 027): 16 fold
MIC of Novobiocin +Compound 1 (A. baumannii; A. baumannii 031): 0.5 µg/mL
Fold Potentiation (A. baumannii; A. baumannii 031): 16 fold
MIC of Novobiocin +Compound 1 (A. baumannii; A. baumannii 92247): 0.25 µg/mL
Fold Potentiation (A. baumannii; A. baumannii 92247): 16 fold
MIC of Novobiocin +Compound 1 (A. baumannii; A. baumannii 110193): 1 µg/mL
Fold Potentiation (A. baumannii; A. baumannii 110193): 256 fold
MIC of Novobiocin +Compound 1 (A. baumannii; A. baumannii ATCC 17978): 0.5 µg/mL
Fold Potentiation (A. baumannii; A. baumannii ATCC 17978): 32 fold
MIC of Novobiocin +Compound 1 (A. baumannii; A. baumannii LAC-4): 0.5 µg/mL
Fold Potentiation (A. baumannii; A. baumannii LAC-4): 16 fold
MIC of Novobiocin + adjuvant (7.1 μM) (A. baumannii; AB 92247, PMBN or 1 at 7.1 μM): 0.25 µg/mL
potentiation of novobiocin (A. baumannii; colistin-resistant mutant B of A. baumannii ATCC 17978): did not potentiate
fold potentiation of novobiocin (A. baumannii; novobiocin-resistant mutant A of A. baumannii ATCC 17978): 16 fold
MIC of novobiocin in the presence of compound 1 (A. baumannii; wild-type and MDR A. baumannii clinical isolates, ≤7.1 μM of compound 1): ≤ 1 µg/mL
MIC of Novobiocin +Compound 1 (P. aeruginosa; P. aeruginosa 259-96918): 8 µg/mL
MIC of Novobiocin +Compound 1 (P. aeruginosa; P. aeruginosa 260-97103): 1 µg/mL
MIC of Novobiocin +Compound 1 (P. aeruginosa; P. aeruginosa 262-101856): 8 µg/mL
MIC of Novobiocin +Compound 1 (P. aeruginosa; P. aeruginosa 264-104354): 8 µg/mL
MIC of Novobiocin +Compound 1 (P. aeruginosa; P. aeruginosa 91433): 1 µg/mL
MIC of Novobiocin +Compound 1 (P. aeruginosa; P. aeruginosa 100036): 8 µg/mL
MIC of Novobiocin +Compound 1 (P. aeruginosa; P. aeruginosa 101243): 1 µg/mL
MIC of Novobiocin +Compound 1 (P. aeruginosa; P. aeruginosa 101885): 8 µg/mL
MIC of Novobiocin +Compound 1 (P. aeruginosa; P. aeruginosa 114228): 16 µg/mL
MIC of Novobiocin +Compound 1 (P. aeruginosa; P. aeruginosa PAO1): 4 µg/mL
MIC of Novobiocin + adjuvant (7.1 μM) (P. aeruginosa; PA 91433): 1 µg/mL
MIC of Novobiocin + adjuvant (7.1 μM) (P. aeruginosa; PA 101243): 1 µg/mL
MIC of Novobiocin + adjuvant (7.1 μM) (P. aeruginosa; PA 114228): 16 µg/mL
MIC of Novobiocin +7.1 μM Compound 1 (P. aeruginosa; PAO1 (wild-type)): 4 µg/mL
MIC of Novobiocin + adjuvant (7.1 μM) (P. aeruginosa; PAO1): 4 µg/mL
MIC of Novobiocin +7.1 μM Compound 1 (P. aeruginosa; PAO200 (efflux-deficient)): 0.125 µg/mL
MIC of Novobiocin +7.1 μM Compound 1 (P. aeruginosa; PAO750 (efflux-deficient)): 0.125 µg/mL
MIC of Novobiocin +Compound 1 (E. coli; E. coli 94393): 2 µg/mL
MIC of Novobiocin + adjuvant (7.1 μM) (E. coli; E. coli 94393): 2 µg/mL
Fold Potentiation (E. coli; E. coli 94393): 64 fold
MIC of Novobiocin +Compound 1 (E. coli; E. coli 94474): 16 µg/mL
MIC of Novobiocin + adjuvant (7.1 μM) (E. coli; E. coli 94474): 16 µg/mL
Fold Potentiation (E. coli; E. coli 94474): 16 fold
MIC of Novobiocin +Compound 1 (E. coli; E. coli 107115): 8 µg/mL
Fold Potentiation (E. coli; E. coli 107115): 16 fold
MIC of Novobiocin +Compound 1 (E. coli; E. coli ATCC 25922): 2 µg/mL
Fold Potentiation (E. coli; E. coli ATCC 25922): 32 fold
MIC of Novobiocin +Compound 1 (E. cloacae; E. cloacae 117029): 8 µg/mL
Fold Potentiation (E. cloacae; E. cloacae 117029): 128 fold
MIC of Novobiocin +Compound 1 (E. cloacae; E. cloacae 118568): 32 µg/mL
Fold Potentiation (E. cloacae; E. cloacae 118568): 32 fold
MIC of Novobiocin +Compound 1 (E. cloacae; E. cloacae 121187): 8 µg/mL
Fold Potentiation (E. cloacae; E. cloacae 121187): 8 fold
MIC of Novobiocin + adjuvant (7.1 μM) (E. cloacae; EC 118568, PMBN or 1 at 7.1 μM): 32 µg/mL
MIC of Novobiocin +Compound 1 (K. pneumoniae; K. pneumoniae 113250): 16 µg/mL
Fold Potentiation (K. pneumoniae; K. pneumoniae 113250): 32 fold
MIC of Novobiocin +Compound 1 (K. pneumoniae; K. pneumoniae 113254): 16 µg/mL
Fold Potentiation (K. pneumoniae; K. pneumoniae 113254): 16 fold
MIC of Novobiocin +Compound 1 (K. pneumoniae; K. pneumoniae 116381): 8 µg/mL
Fold Potentiation (K. pneumoniae; K. pneumoniae 116381): 128 fold
MIC of Novobiocin + adjuvant (7.1 μM) (K. pneumoniae; KP 113254, PMBN or 1 at 7.1 μM): 16 µg/mL
resistance phenotype after exposure to sub-MIC levels (A. baumannii ATCC 17978): did not generate tobramycin-resistant phenotype
mortality of infected larvae (MDR A. baumannii): 100%
